Reference: US11807835B2, “Detergent compositions containing a stabilized enzyme by phosphonates” (ECOLAB USA INC., priority 2016, dated 2023)

What was measured:
amylase = experiment: Amylase activity retention in detergent use solution (4000 ppm, 5 GPG water; ethylidene substrate EPS, HEPES buffer pH 8.0); format: biochemical; conditions: base formula
How it was run: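 Detergent use solution at 4000 ppm in 5 GPG water held at 120° F.; aliquots taken up to 4 h, flash-frozen, then assayed with p-nitrophenyl valerate in TRIS pH 8.0 (lipase) or EPS substrate in HEPES pH 8.0 (amylase). Retention given as % activity relative to t=0.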

[1] = test system: enzyme (protease, amylase, lipase); experiment: Overall effects of phosphonates on enzyme activity (Table 3); format: biochemical; conditions: overall effect of the phosphonate on enzyme activity in the detergent use solution
How it was run: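 Protease, amylase and lipase activity in detergent use solutions with varied phosphonate levels, 4000 ppm in 5 GPG water at 120° F., sampled up to 4 h and frozen at −80° C. before assay. Activity given as % retention relative to t=0 (100%).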

Polyamino Polyether Methylene Phosphonic Acid [PAPEMP]
Relative Amylase Enzyme Activity (amylase; phosphonate 0.3 wt-%, use solution at 120° F., time 0 min): 45.92% | Relative Amylase Enzyme Activity (amylase; phosphonate 0.3 wt-%, use solution at 120° F., time 5 min): 100.00% | Relative Amylase Enzyme Activity (amylase; phosphonate 0.3 wt-%, use solution at 120° F., time 10 min): 101.33% | Relative Amylase Enzyme Activity (amylase; phosphonate 0.3 wt-%, use solution at 120° F., time 20 min): 101.28% | Relative Amylase Enzyme Activity (amylase; phosphonate 0.3 wt-%, use solution at 120° F., time 40 min): 89.91% | Relative Amylase Enzyme Activity (amylase; phosphonate 0.3 wt-%, use solution at 120° F., time 60 min): 93.07% | Relative Amylase Enzyme Activity (amylase; phosphonate 0.3 wt-%, use solution at 120° F., time 90 min): 89.58% | Relative Amylase Enzyme Activity (amylase; phosphonate 0.3 wt-%, use solution at 120° F., time 120 min): 89.74% | Relative Amylase Enzyme Activity (amylase; phosphonate 0.3 wt-%, use solution at 120° F., time 150 min): 92.85% | Relative Amylase Enzyme Activity (amylase; phosphonate 0.3 wt-%, use solution at 120° F., time 180 min): 87.45% | Relative Amylase Enzyme Activity (amylase; phosphonate 0.3 wt-%, use solution at 120° F., time 210 min): 93.95% | Relative Amylase Enzyme Activity (amylase; phosphonate 0.3 wt-%, use solution at 120° F., time 240 min): 108.16% | Relative Amylase Enzyme Activity (amylase; phosphonate 0.6 wt-%, use solution at 120º F., time 0 min): 100.00% | Relative Amylase Enzyme Activity (amylase; phosphonate 0.6 wt-%, use solution at 120º F., time 5 min): 91.71% | Relative Amylase Enzyme Activity (amylase; phosphonate 0.6 wt-%, use solution at 120º F., time 10 min): 99.05% | Relative Amylase Enzyme Activity (amylase; phosphonate 0.6 wt-%, use solution at 120º F., time 20 min): 94.55% | Relative Amylase Enzyme Activity (amylase; phosphonate 0.6 wt-%, use solution at 120º F., time 40 min): 97.22% | Relative Amylase Enzyme Activity (amylase; phosphonate 0.6 wt-%, use solution at 120º F., time 60 min): 97.94% | Relative Amylase Enzyme Activity (amylase; phosphonate 0.6 wt-%, use solution at 120º F., time 90 min): 101.28% | Relative Amylase Enzyme Activity (amylase; phosphonate 0.6 wt-%, use solution at 120º F., time 120 min): 99.25% | Relative Amylase Enzyme Activity (amylase; phosphonate 0.6 wt-%, use solution at 120º F., time 150 min): 105.34% | Relative Amylase Enzyme Activity (amylase; phosphonate 0.6 wt-%, use solution at 120º F., time 180 min): 98.44% | Relative Amylase Enzyme Activity (amylase; phosphonate 0.6 wt-%, use solution at 120º F., time 210 min): 101.64% | Relative Amylase Enzyme Activity (amylase; phosphonate 0.6 wt-%, use solution at 120º F., time 240 min): 96.02% | Relative Amylase Enzyme Activity (amylase; phosphonate at 0.1% elemental phosphorus level, use solution at 120º F., time 0 min): 100.00% | Relative Amylase Enzyme Activity (amylase; phosphonate at 0.1% elemental phosphorus level, use solution at 120º F., time 5 min): 85.10% | Relative Amylase Enzyme Activity (amylase; phosphonate at 0.1% elemental phosphorus level, use solution at 120º F., time 10 min): 95.50% | Relative Amylase Enzyme Activity (amylase; phosphonate at 0.1% elemental phosphorus level, use solution at 120º F., time 20 min): 96.02% | Relative Amylase Enzyme Activity (amylase; phosphonate at 0.1% elemental phosphorus level, use solution at 120º F., time 40 min): 91.46% | Relative Amylase Enzyme Activity (amylase; phosphonate at 0.1% elemental phosphorus level, use solution at 120º F., time 60 min): 97.42% | Relative Amylase Enzyme Activity (amylase; phosphonate at 0.1% elemental phosphorus level, use solution at 120º F., time 90 min): 89.60% | Relative Amylase Enzyme Activity (amylase; phosphonate at 0.1% elemental phosphorus level, use solution at 120º F., time 120 min): 99.26% | Relative Amylase Enzyme Activity (amylase; phosphonate at 0.1% elemental phosphorus level, use solution at 120º F., time 150 min): 101.88% | Relative Amylase Enzyme Activity (amylase; phosphonate at 0.1% elemental phosphorus level, use solution at 120º F., time 180 min): 91.85% | Relative Amylase Enzyme Activity (amylase; phosphonate at 0.1% elemental phosphorus level, use solution at 120º F., time 210 min): 99.00% | Relative Amylase Enzyme Activity (amylase; phosphonate at 0.1% elemental phosphorus level, use solution at 120º F., time 240 min): 96.59% | Stability (effects on enzyme activity) [1]: Yes
